Test results taken from PubChem BioAssay (NCI).
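Five concentrations, 48 hours, 96-well plates. The concentration for 50% growth inhibition is given as GI50. TGI: concentration producing complete growth inhibition.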

What was measured:
Experiment in all cases: NCI-60 cell line screen, 48 h
HCC-2998 colon = test system: HCC-2998 colon
SF-539 CNS = test system: SF-539 CNS
CCRF-CEM leukemia = test system: CCRF-CEM leukemia
TK-10 renal = test system: TK-10 renal
HCT-116 colon = test system: HCT-116 colon
OVCAR-4 ovarian = test system: OVCAR-4 ovarian
A498 renal = test system: A498 renal
COLO 205 colon = test system: COLO 205 colon
MDA-MB-435 = test system: MDA-MB-435
NCI-H23 lung = test system: NCI-H23 lung
T-47D breast = test system: T-47D breast
LOX IMVI melanoma = test system: LOX IMVI melanoma
NCI-H226 lung = test system: NCI-H226 lung
SK-MEL-5 melanoma = test system: SK-MEL-5 melanoma
U251 CNS = test system: U251 CNS
UACC-257 melanoma = test system: UACC-257 melanoma
UACC-62 melanoma = test system: UACC-62 melanoma

| Structure (SMILES) | TGI (HCC-2998 colon) [µM] | TGI (SF-539 CNS) [µM] | TGI (CCRF-CEM leukemia) [µM] | TGI (TK-10 renal) [µM] | TGI (HCT-116 colon) [µM] | TGI (OVCAR-4 ovarian) [µM] | TGI (A498 renal) [µM] | TGI (COLO 205 colon) [µM] | TGI (MDA-MB-435) [µM] | TGI (NCI-H23 lung) [µM] | TGI (T-47D breast) [µM] | TGI (LOX IMVI melanoma) [µM] | TGI (NCI-H226 lung) [µM] | TGI (SK-MEL-5 melanoma) [µM] | TGI (U251 CNS) [µM] | TGI (UACC-257 melanoma) [µM] | TGI (UACC-62 melanoma) [µM] | GI50 (OVCAR-4 ovarian) [µM] | GI50 (A498 renal) [µM] |
| --- | --- | --- | --- | --- | --- | --- | --- | --- | --- | --- | --- | --- | --- | --- | --- | --- | --- | --- | --- |
| CN=CN(C)c1c2ccccc2nc2ccccc12 | > 100 | > 100 | > 100 | > 100 | > 100 | > 100 | > 100 | > 100 | > 100 | > 100 | > 100 | > 100 | > 100 | > 100 | > 100 | > 100 | > 100 | – | – |
| CCOP(=O)(OCC)C(Nc1cccc([N+](=O)[O-])c1)c1ccccc1 (stereo not given) | > 100 | > 100 | > 100 | > 100 | > 100 | > 100 | > 100 | > 100 | > 100 | > 100 | 62.1 | > 100 | > 100 | > 100 | > 100 | > 100 | > 100 | – | – |
| COc1cc(NCc2ccc3nc(-c4ccccc4)c(N)nc3c2)cc(OC)c1OC | > 100 | 91.4 | 77 | > 100 | 33.7 | > 100 | 75.3 | 38.6 | 50.7 | 62.3 | 91 | > 100 | > 100 | 28.9 | > 100 | 51.4 | 72.6 | – | – |
| C#CCOCn1ccc(=O)[nH]c1=O | > 100 | > 100 | > 100 | > 100 | > 100 | > 100 | > 100 | > 100 | > 100 | > 100 | > 100 | > 100 | > 100 | > 100 | > 100 | > 100 | > 100 | – | – |
| CC(=O)O[C@@H]1[C@H]2[C@@H](OC(=O)c3ccccc3)[C@@H](C)C[C@]2(O)[C@H](OC(C)=O)[C@@]2(C)[C@@H]3CC(C)(C)C(=O)[C@]3(OC(C)=O)C[C@@]12C | > 25 | > 25 | > 25 | > 25 | > 25 | > 25 | > 25 | > 25 | > 25 | > 25 | > 25 | > 25 | > 25 | > 25 | > 25 | > 25 | > 25 | – | – |
| CCOP1(=O)C=C(Sc2ccc([N+](=O)[O-])cc2[N+](=O)[O-])C(C)(C)O1 (stereo not given) | 39.7 | 27.5 | 16.4 | 31.3 | 18.8 | 28.9 | 44.5 | 23.9 | 28.5 | 46.3 | 32 | > 34.9 | 47.2 | 23 | 30.3 | 25 | 26.4 | – | – |
| Cc1nc(-n2[nH]c(C)c(CCO)c2=O)[nH]c(=O)c1CCO | > 100 | > 100 | > 100 | > 100 | > 100 | > 100 | > 100 | > 100 | > 100 | > 100 | > 100 | > 100 | > 100 | > 100 | > 100 | > 100 | > 100 | – | – |
| Cc1cccc2c(=O)c3c(O)cc(O)cc3[nH]c12 | > 10 | > 10 | > 10 | > 10 | > 10 | > 10 | > 10 | > 10 | > 10 | > 10 | > 10 | > 10 | > 10 | > 10 | > 10 | > 10 | > 10 | – | – |
| CCOC(=O)c1sc2nc(SC)nc3c2c1NCN3c1ccc2c(c1)OCCCO2 | > 100 | 53.9 | > 100 | > 100 | > 100 | > 100 | 45.8 | – | > 100 | > 100 | > 100 | > 100 | > 100 | > 100 | 57.7 | > 100 | > 100 | – | – |
| COc1ccc2oc(=O)cc(C)c2c1 | > 100 | > 100 | > 100 | > 100 | > 100 | > 100 | > 100 | > 100 | > 100 | > 100 | > 100 | > 100 | > 100 | > 100 | > 100 | > 100 | > 100 | – | – |
| Cc1ccc2cc3c(ccc4ccccc43)c3c2c1CC3 | > 100 | > 100 | > 100 | > 100 | > 100 | > 100 | > 100 | > 100 | > 100 | > 100 | > 100 | > 100 | > 100 | > 100 | > 100 | > 100 | > 100 | > 100 | > 100 |
| CCOC(=O)c1cc(C2CCN(CC(C)CC)C2=S)c(-c2cc(C)no2)[nH]1 (stereo not given) | > 100 | > 100 | > 100 | – | > 100 | > 100 | > 100 | > 100 | > 100 | > 100 | > 100 | > 100 | > 100 | > 100 | > 100 | > 100 | > 100 | – | – |
| CC1=C(O)C(=O)C[C@]2(C)[C@H]3CC=C4[C@@H]5CC(C)(C)CC[C@@H]5C(=O)[C@H](O)[C@@]4(C)[C@]3(C)CC[C@@H]12 | > 50 | > 50 | > 50 | > 50 | > 50 | > 50 | > 50 | > 50 | > 50 | > 50 | > 50 | – | > 50 | > 50 | > 50 | > 50 | > 50 | – | – |
